Values joined by “and” are separate entries in the source; they are usually repeats but may differ in a detail not shown here. Identical values can stand only once. HELM strings list units from the 5' end as sugar, base in round brackets, then linkage (d deoxyribose, r ribose, m 2'-O-methyl, p phosphodiester). Strings are as the collection lists them; they lack the last nucleoside at the 3' end of the tested compound. [moe] = 2'-O-(2-methoxyethyl) (MOE); [sp] = phosphorothioate linkage; [m5C] = 5-methylcytosine
Molecular target: SMN2
Assay: mouse, dose not given
Settings: ASO

RNA1{[moe](T)[sp].[moe]([m5C])[sp].[moe](A)[sp].[moe]([m5C])[sp].[moe](T)[sp].[moe](T)[sp].[moe](T)[sp].[moe]([m5C])[sp].[moe](A)[sp].[moe](T)[sp].[moe](A)[sp].[moe](A)[sp].[moe](T)[sp].[moe](G)[sp].[moe]([m5C])[sp].[moe](T)[sp].[moe](G)[sp].[moe](G)p.d(A)}$$$$ (last 3' nucleoside missing)
3 h FOB score: 4 score 0-7 (2×) and 4.25 score 0-7 (2×) and 3.75 score 0-7 (2×)

RNA1{[moe]([m5C])[sp].[moe](A)[sp].[moe]([m5C])[sp].[moe](T)[sp].[moe](T)[sp].[moe](T)[sp].[moe]([m5C])p.[moe](A)p.[moe](T)p.[moe](A)p.[moe](A)[sp].[moe](T)[sp].[moe](G)[sp].[moe]([m5C])[sp].[moe](T)[sp].[moe](G)[sp].[moe](G)}$$$$ (last 3' nucleoside missing)
3 h FOB score: 0 score 0-7

RNA1{[moe]([m5C])[sp].[moe](T)[sp].[moe](T)p.[moe](T)[sp].[moe]([m5C])[sp].[moe](A)[sp].[moe](T)[sp].[moe](A)[sp].[moe](A)[sp].[moe](T)[sp].[moe](G)[sp].[moe]([m5C])[sp].[moe](T)p.[moe](G)[sp].[moe](G)}$$$$ (last 3' nucleoside missing)
3 h FOB score: 0.5 score 0-7

RNA1{[moe](A)[sp].[moe]([m5C])[sp].[moe](T)p.[moe](T)[sp].[moe](T)[sp].[moe]([m5C])p.[moe](A)[sp].[moe](T)[sp].[moe](A)p.[moe](A)[sp].[moe](T)[sp].[moe](G)p.[moe]([m5C])[sp].[moe](T)p.[moe](G)[sp].[moe](G)}$$$$ (last 3' nucleoside missing)
3 h FOB score: 0 score 0-7

RNA1{[moe](A)[sp].[moe](T)[sp].[moe](T)[sp].[moe]([m5C])[sp].[moe](A)[sp].[moe]([m5C])[sp].[moe](T)[sp].[moe](T)[sp].[moe](T)[sp].[moe]([m5C])[sp].[moe](A)[sp].[moe](T)[sp].[moe](A)[sp].[moe](A)[sp].[moe](T)p.[moe](G)[sp].[moe]([m5C])p.[moe](T)[sp].[moe](G)}$$$$ (last 3' nucleoside missing)
3 h FOB score: 2 score 0-7

RNA1{[moe](A)[sp].[moe]([m5C])[sp].[moe](T)p.[moe](T)[sp].[moe](T)[sp].[moe]([m5C])[sp].[moe](A)[sp].[moe](T)[sp].[moe](A)[sp].[moe](A)[sp].[moe](T)[sp].[moe](G)[sp].[moe]([m5C])[sp].[moe](T)p.[moe](G)[sp].[moe](G)}$$$$ (last 3' nucleoside missing)
3 h FOB score: 0 score 0-7

RNA1{[moe]([m5C])[sp].[moe](T)[sp].[moe](T)[sp].[moe](T)[sp].[moe]([m5C])[sp].[moe](A)[sp].[moe](T)[sp].[moe](A)[sp].[moe](A)p.[moe](T)p.[moe](G)p.[moe]([m5C])p.[moe](T)[sp].[moe](G)[sp].[moe](G)}$$$$ (last 3' nucleoside missing)
3 h FOB score: 0 score 0-7

RNA1{[moe](T)[sp].[moe]([m5C])[sp].[moe](A)[sp].[moe]([m5C])[sp].[moe](T)[sp].[moe](T)[sp].[moe](T)[sp].[moe]([m5C])[sp].[moe](A)[sp].[moe](T)[sp].[moe](A)[sp].[moe](A)[sp].[moe](T)[sp].[moe](G)[sp].[moe]([m5C])[sp].[moe](T)[sp].[moe](G)[sp].[moe](G)p.d([m5C])}$$$$ (last 3' nucleoside missing)
3 h FOB score: 4 score 0-7 (2×) and 3.75 score 0-7 (2×) and 3.5 score 0-7

RNA1{[moe]([m5C])[sp].[moe](A)[sp].[moe]([m5C])[sp].[moe](T)[sp].[moe](T)[sp].[moe](T)[sp].[moe]([m5C])[sp].[moe](A)[sp].[moe](T)[sp].[moe](A)[sp].[moe](A)[sp].[moe](T)[sp].[moe](G)[sp].[moe]([m5C])[sp].[moe](T)[sp].[moe](G)}$$$$ (last 3' nucleoside missing)
3 h FOB score: 3.25 score 0-7

RNA1{[moe]([m5C])[sp].[moe](A)[sp].[moe]([m5C])[sp].[moe](T)[sp].[moe](T)[sp].[moe](T)[sp].[moe]([m5C])[sp].[moe](A)[sp].[moe](T)[sp].[moe](A)[sp].[moe](A)[sp].[moe](T)[sp].[moe](G)[sp].[moe]([m5C])[sp].[moe](T)p.[moe](G)[sp].[moe](G)}$$$$ (last 3' nucleoside missing)
3 h FOB score: 0 score 0-7

RNA1{[moe](A)[sp].[moe](T)p.[moe](T)[sp].[moe]([m5C])[sp].[moe](A)[sp].[moe]([m5C])[sp].[moe](T)[sp].[moe](T)[sp].[moe](T)[sp].[moe]([m5C])[sp].[moe](A)[sp].[moe](T)[sp].[moe](A)[sp].[moe](A)[sp].[moe](T)[sp].[moe](G)[sp].[moe]([m5C])[sp].[moe](T)[sp].[moe](G)}$$$$ (last 3' nucleoside missing)
3 h FOB score: 4 score 0-7

RNA1{[moe](A)[sp].[moe]([m5C])[sp].[moe](T)[sp].[moe](T)[sp].[moe](T)[sp].[moe]([m5C])[sp].[moe](A)[sp].[moe](T)[sp].[moe](A)[sp].[moe](A)[sp].[moe](T)[sp].[moe](G)[sp].[moe]([m5C])[sp].[moe](T)[sp].[moe](G)[sp].[moe](G)[sp].[moe]([m5C])[sp].[moe](A)}$$$$ (last 3' nucleoside missing)
3 h FOB score: 0 score 0-7

RNA1{[moe]([m5C])[sp].[moe](A)[sp].[moe]([m5C])[sp].[moe](T)[sp].[moe](T)[sp].[moe](T)[sp].[moe]([m5C])[sp].[moe](A)[sp].[moe](T)[sp].[moe](A)p.[moe](A)p.[moe](T)[sp].[moe](G)[sp].[moe]([m5C])[sp].[moe](T)[sp].[moe](G)[sp].[moe](G)}$$$$ (last 3' nucleoside missing)
3 h FOB score: 1 score 0-7

RNA1{[moe](A)[sp].[moe]([m5C])[sp].[moe](T)[sp].[moe](T)[sp].[moe](T)[sp].[moe]([m5C])[sp].[moe](A)[sp].[moe](T)[sp].[moe](A)[sp].[moe](A)[sp].[moe](T)p.[moe](G)p.[moe]([m5C])p.[moe](T)p.[moe](G)[sp].[moe](G)}$$$$ (last 3' nucleoside missing)
3 h FOB score: 0 score 0-7

RNA1{[moe]([m5C])[sp].[moe](A)p.[moe]([m5C])[sp].[moe](T)p.[moe](T)[sp].[moe](T)[sp].[moe]([m5C])[sp].[moe](A)[sp].[moe](T)[sp].[moe](A)[sp].[moe](A)[sp].[moe](T)[sp].[moe](G)[sp].[moe]([m5C])[sp].[moe](T)[sp].[moe](G)[sp].[moe](G)}$$$$ (last 3' nucleoside missing)
3 h FOB score: 0 score 0-7

RNA1{[moe](T)p.[moe](T)[sp].[moe]([m5C])[sp].[moe](A)[sp].[moe]([m5C])[sp].[moe](T)[sp].[moe](T)[sp].[moe](T)[sp].[moe]([m5C])[sp].[moe](A)[sp].[moe](T)[sp].[moe](A)[sp].[moe](A)[sp].[moe](T)[sp].[moe](G)[sp].[moe]([m5C])[sp].[moe](T)[sp].[moe](G)[sp].[moe](G)}$$$$ (last 3' nucleoside missing)
3 h FOB score: 3.25 score 0-7

RNA1{[moe]([m5C])[sp].[moe](A)p.[moe]([m5C])p.[moe](T)[sp].[moe](T)[sp].[moe](T)[sp].[moe]([m5C])[sp].[moe](A)[sp].[moe](T)[sp].[moe](A)[sp].[moe](A)[sp].[moe](T)[sp].[moe](G)[sp].[moe]([m5C])p.[moe](T)p.[moe](G)[sp].[moe](G)}$$$$ (last 3' nucleoside missing)
3 h FOB score: 0 score 0-7

RNA1{[moe]([m5C])[sp].[moe](A)[sp].[moe]([m5C])[sp].[moe](T)[sp].[moe](T)[sp].[moe](T)[sp].[moe]([m5C])p.[moe](A)[sp].[moe](T)[sp].[moe](A)[sp].[moe](A)[sp].[moe](T)[sp].[moe](G)[sp].[moe]([m5C])[sp].[moe](T)p.[moe](G)[sp].[moe](G)}$$$$ (last 3' nucleoside missing)
3 h FOB score: 0 score 0-7

RNA1{[moe](A)[sp].[moe]([m5C])[sp].[moe](T)p.[moe](T)[sp].[moe](T)p.[moe]([m5C])[sp].[moe](A)p.[moe](T)[sp].[moe](A)p.[moe](A)[sp].[moe](T)p.[moe](G)[sp].[moe]([m5C])p.[moe](T)[sp].[moe](G)[sp].[moe](G)}$$$$ (last 3' nucleoside missing)
3 h FOB score: 0 score 0-7

RNA1{[moe]([m5C])[sp].[moe](A)[sp].[moe]([m5C])[sp].[moe](T)[sp].[moe](T)[sp].[moe](T)[sp].[moe]([m5C])[sp].[moe](A)[sp].[moe](T)[sp].[moe](A)[sp].[moe](A)[sp].[moe](T)p.[moe](G)p.[moe]([m5C])[sp].[moe](T)[sp].[moe](G)[sp].[moe](G)}$$$$ (last 3' nucleoside missing)
3 h FOB score: 0 score 0-7

RNA1{[moe]([m5C])[sp].[moe](A)[sp].[moe]([m5C])[sp].[moe](T)[sp].[moe](T)[sp].[moe](T)[sp].[moe]([m5C])[sp].[moe](A)[sp].[moe](T)[sp].[moe](A)[sp].[moe](A)[sp].[moe](T)[sp].[moe](G)[sp].[moe]([m5C])[sp].[moe](T)[sp].[moe](G)[sp].[moe](G)}$$$$ (last 3' nucleoside missing)
3 h FOB score: 2.5 score 0-7

RNA1{[moe](A)[sp].[moe]([m5C])[sp].[moe](T)p.[moe](T)[sp].[moe](T)[sp].[moe]([m5C])[sp].[moe](A)p.[moe](T)[sp].[moe](A)[sp].[moe](A)[sp].[moe](T)p.[moe](G)[sp].[moe]([m5C])[sp].[moe](T)p.[moe](G)[sp].[moe](G)}$$$$ (last 3' nucleoside missing)
3 h FOB score: 0 score 0-7

RNA1{[moe]([m5C])[sp].[moe](A)[sp].[moe]([m5C])p.[moe](T)[sp].[moe](T)[sp].[moe](T)[sp].[moe]([m5C])[sp].[moe](A)[sp].[moe](T)p.[moe](A)[sp].[moe](A)[sp].[moe](T)[sp].[moe](G)[sp].[moe]([m5C])[sp].[moe](T)p.[moe](G)[sp].[moe](G)}$$$$ (last 3' nucleoside missing)
3 h FOB score: 0 score 0-7

RNA1{[moe]([m5C])[sp].[moe](A)[sp].[moe]([m5C])[sp].[moe](T)[sp].[moe](T)[sp].[moe](T)[sp].[moe]([m5C])[sp].[moe](A)[sp].[moe](T)[sp].[moe](A)[sp].[moe](A)[sp].[moe](T)[sp].[moe](G)p.[moe]([m5C])[sp].[moe](T)[sp].[moe](G)[sp].[moe](G)}$$$$ (last 3' nucleoside missing)
3 h FOB score: 0 score 0-7
